Data published in PMC12650180, “Discovery of Drug-like Inhibitors of the Human Caf1/CNOT7 poly(A)-Selective Nuclease Using Compound Screening” (Biomolecules, 2025).

Target: human Caf1/CNOT7 (Homo sapiens, UniProt Q9UIV1)
Test: Fluorescence-based Caf1/CNOT7 nuclease activity assay (Flc-RNA substrate, TAMRA-labelled DNA probe)
Assay type: biochemical
Settings: mean ± standard deviation; 0.4 μM Caf1/CNOT7, 0.1 μM Flc-RNA substrate, 15 min preincubation, 60 min at 30 °C
Description: Compounds (10 mM in DMSO) were stored in a dry, inert environment at −20 °C in an automated sample management system (comPOUND, TTP Labtech Technology, Melbourn, UK). After dispensing aliquots in 96-well plates, compounds were diluted to 0.5 mM in 20% DMSO/water. Aliquots ([…]; […]) were transferred to black U-well 384-well plates (Greiner Bio-One, Kremsmünster, Austria) using a multichannel pipette. Subsequent screening was carried out as described before with modifications for use with a Biomek 3000 liquid handler (Beckman Coulter, Brea, CA, USA). First, enzyme (8 μL containing 1.0 μM Caf1/CNOT7, 50 mM Tris–HCl pH 7.9, 125 mM NaCl, 5 mM MgCl2, 25% glycerol, 2.5 mM β-mercaptoethanol) was added. After mixing, the mixture was left at room temperature for 15 min before the addition of RNA substrate (8 μL; 0.25 μM Flc-RNA substrate in H2O). The composition of the final reaction mixture was: 0.4 μM Caf1/CNOT7, 0.1 μM Flc-RNA substrate, 20 mM Tris–HCl pH 7.9, 50 mM NaCl, 2 mM MgCl2, 10% glycerol, 1 mM β-mercaptoethanol, 5% DMSO, and 100 μM library compound. After incubation at 30 °C for 60 min, 20 μL probe mix (5 μM DNA probe, 1% SDS, 20 mM Tris–HCl pH 8.0, 0.5 mM EDTA) was added. Fluorescence was measured using a BioTek Synergy HT plate reader using the following filters: 485 ± 20 nm (excitation) and 528 ± 20 nm (emission). Hits were identified following data analysis in Microsoft Excel. Screening data was visualised using GraphPad Prism (version 10.4.0).
Reaction conditions and fluorescence measurements were as described above and before. Non-linear regression was carried out using GraphPad Prism 5.0. IC50 values were typically determined using three independent experiments, each containing three replicates.
To discover new inhibitors of the Caf1/CNOT7 nuclease subunit of the Ccr4–Not complex, we screened a sub-set of the Nottingham Managed Chemical Compound Collection, which contains over 83,000 synthetic compounds that are commercially available and were selected based on chemical diversity and drug-like properties. A representative sub-set of 10,880 compounds was selected and screened in duplicate in a 384-well plate format (Figure 1A). The library compounds were screened using a fluorescence-based activity assay that was developed previously. Briefly, purified Caf1/CNOT7 enzyme was pre-incubated with library compounds. This was followed by the addition of a 5′ fluorescein-labelled RNA oligonucleotide containing a stretch of nine adenosine residues at the 3′ end that served as substrate for Caf1/CNOT7. After incubation, the reaction was terminated and a 3′ TAMRA-labelled DNA probe complementary to the substrate was added. […] However, in case Caf1/CNOT7 was inhibited, the substrate remained intact, resulting in annealing of the DNA probe and quenching of fluorescence due to the close vicinity of the fluorescein and TAMRA fluorophores (Figure 1B).
Figure 3 Determination of the IC50 values of small-molecule inhibitors of Caf1/CNOT7. Compounds were preincubated with Caf1/CNOT7 for 15 min at room temperature, followed by the addition of RNA substrate. After incubation (60 min at 30 °C), reactions were stopped by the addition of SDS and a 5-fold molar excess of DNA probe. The mean values for each independent experiment were plotted (Open square, experiment 1; closed circle, experiment 2; diamond, experiment 3).

Chain of human Caf1/CNOT7 (Q9UIV1 whole entry): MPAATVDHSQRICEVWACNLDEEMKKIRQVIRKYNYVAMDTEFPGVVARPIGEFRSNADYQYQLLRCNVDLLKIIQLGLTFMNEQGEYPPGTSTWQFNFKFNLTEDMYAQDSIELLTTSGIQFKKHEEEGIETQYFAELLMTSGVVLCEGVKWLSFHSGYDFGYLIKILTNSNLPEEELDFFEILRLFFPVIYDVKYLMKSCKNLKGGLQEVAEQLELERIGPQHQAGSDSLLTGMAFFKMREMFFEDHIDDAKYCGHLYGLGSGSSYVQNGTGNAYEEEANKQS

Row | SMILES | IC50 [µM]
1 | O=C(COC(=O)Cc1ccc(-c2ccccc2)cc1)NC(=O)c1cccs1 [Compound 21] | 78.3 ± 9.5
2 | CCOC(=O)Cc1ncccc1C(=O)Nc1ccc(Br)c(C(F)(F)F)c1 [Compound 18] | 57.3 ± 10.1
3 | N#Cc1cc(C#N)c(SCc2nnc(-c3cccs3)o2)nc1N [Compound 12] | 21.3 ± 4.6
4 | CC(NC(=O)c1ccoc1)C(=O)Nc1cc(-c2cc(Cl)cc(Cl)c2)[nH]n1 (centres unmarked) [Compound 6] | 19.7 ± 2.5
5 | O=C(Nc1cc(Br)cnc1O)c1ccc2ccccc2c1 [Compound 20] | 256 ± 20.4
6 | Cc1ccc(NC(=O)c2c[nH]nc2-c2ccc(Cl)cc2)nc1 [Compound 2] | 19.5 ± 3.4
7 | CC(=O)c1c(C)[nH]c(C(=O)Nc2nnc(Cc3ccccc3)s2)c1C [Compound 3] | 20.7 ± 0.9
8 | Cc1sc2nc(COC(=O)Cn3cc(C(F)(F)F)ccc3=O)nc(N)c2c1C [Compound 16] | 122 ± 10.7
9 | O=C(Nc1nc(-c2ccc(Cl)s2)cs1)c1ccc(O)nc1 [Compound 19] | 161 ± 13.7
10 | O=S(=O)(Nc1ccc(SC(F)F)cc1)c1cnn(-c2ccccc2)c1 [Compound 17] | 77.7 ± 0.3
11 | Cc1ccc(CN(Cc2ccc(C)n2C)C(=O)COc2ccccc2C#N)n1C [Compound 15] | 24.4 ± 9.2

Compounds with a lower IC50, results first:

Row | IC50 [µM] | SMILES
12 | 17.4 ± 2.7 | CC(C)c1ccc(-c2nnn(CC(=O)NC(=O)NCc3ccccc3)n2)cc1 [Compound 7]
13 | 17.3 ± 1.1 | CC(=O)Nc1cccc(NC2=NN=C(c3cc(C)[nH]c3C)CS2)c1 [Compound 10]
14 | 18.4 ± 5.9 | N#Cc1cccc(NC(=O)C(C#N)c2nc3ccccc3s2)c1 (centres unmarked) [Compound 9]
15 | 18.9 ± 4.3 | Cc1cccc2sc(NC(=O)CCC(=O)c3ccc(F)cc3)nc12 [Compound 8]
16 | 17.8 ± 0.1 | Cc1ccc2nc(NC(=O)c3cc(Br)c[nH]3)sc2c1 [Compound 1]
17 | 15.6 ± 3.2 | CC(C)CCn1c(SCC(=O)NC(N)=O)nc2cc(Cl)ccc2c1=O [Compound 11]
18 | 14.5 ± 10.7 | CC(C)NC(=O)Nc1cccc(C(=O)Nc2ccc3oc(C(F)(F)F)nc3c2)c1 [Compound 13]
19 | 16.8 ± 2.1 | Cc1cc(NC(=O)NC2(C(F)(F)F)Oc3ccc(Cl)cc3O2)no1 (centres unmarked) [Compound 4]
20 | 17.5 ± 4.2 | O=C(Cc1c[nH]c2ccccc12)OCc1ccc(F)cc1Cl [Compound 5]
